These results are taken from ChEMBL document CHEMBL4145489, “Synthesis and anti-tumor activity of EF24 analogues as IKKβ inhibitors” (Eur J Med Chem, 2018).

The source made the active and inactive calls. No cut-off for these calls is given here.

Data set [1] relates to MGC-803. Nature of the data set: Antiproliferative activity against human MGC803 cells after 72 hrs by MTT assay. In kind it is functional, cell-based. As to conditions: MGC-803, 72 h.
Data set [2] concerns SGC-7901. Kind of data set: Antiproliferative activity against human SGC7901 cells after 72 hrs by MTT assay. In kind it is functional, cell-based. The conditions noted are these: SGC-7901, 72 h. On the technique in general: Tetrazolium assays rely on reduction of a dye to a coloured formazan, in cell work by metabolically active cells.
Another data set concerns A549. Kind of data set: Antiproliferative activity against human A549 cells after 72 hrs by MTT assay. It counts as functional, cell-based. As to conditions: A549, 72 h.
The subject of a further data set is HeLa 229. Nature of the data set: Antiproliferative activity against human HeLa 229 cells after 72 hrs by MTT assay. As to conditions: HeLa 229, 72 h. In kind it is functional, cell-based.
For data set [3], the system named is SGC-7901. Kind of data set: Induction of apoptosis in human SGC7901 cells at 10 uM after 12 hrs by Annexin V-FITC staining-based FACS analysis (reference value: 1.56%). In kind it is functional.
For data set [4], the system named is MGC-803. Kind of data set: Induction of apoptosis in human MGC803 cells at 10 uM after 12 hrs by Annexin V-FITC staining-based FACS analysis (reference value: 1.17%). It counts as functional.
Data set [5] has as its system SGC-7901. Nature of the data set: Induction of apoptosis in human SGC7901 cells at 5 uM after 12 hrs by Annexin V-FITC staining-based FACS analysis (reference value: 1.56%). In kind it is functional.
In data set [6] the target is T1, Inhibitor of nuclear factor kappa-B kinase subunit beta (Homo sapiens) (UniProt O14920).
T1 sequence (whole entry): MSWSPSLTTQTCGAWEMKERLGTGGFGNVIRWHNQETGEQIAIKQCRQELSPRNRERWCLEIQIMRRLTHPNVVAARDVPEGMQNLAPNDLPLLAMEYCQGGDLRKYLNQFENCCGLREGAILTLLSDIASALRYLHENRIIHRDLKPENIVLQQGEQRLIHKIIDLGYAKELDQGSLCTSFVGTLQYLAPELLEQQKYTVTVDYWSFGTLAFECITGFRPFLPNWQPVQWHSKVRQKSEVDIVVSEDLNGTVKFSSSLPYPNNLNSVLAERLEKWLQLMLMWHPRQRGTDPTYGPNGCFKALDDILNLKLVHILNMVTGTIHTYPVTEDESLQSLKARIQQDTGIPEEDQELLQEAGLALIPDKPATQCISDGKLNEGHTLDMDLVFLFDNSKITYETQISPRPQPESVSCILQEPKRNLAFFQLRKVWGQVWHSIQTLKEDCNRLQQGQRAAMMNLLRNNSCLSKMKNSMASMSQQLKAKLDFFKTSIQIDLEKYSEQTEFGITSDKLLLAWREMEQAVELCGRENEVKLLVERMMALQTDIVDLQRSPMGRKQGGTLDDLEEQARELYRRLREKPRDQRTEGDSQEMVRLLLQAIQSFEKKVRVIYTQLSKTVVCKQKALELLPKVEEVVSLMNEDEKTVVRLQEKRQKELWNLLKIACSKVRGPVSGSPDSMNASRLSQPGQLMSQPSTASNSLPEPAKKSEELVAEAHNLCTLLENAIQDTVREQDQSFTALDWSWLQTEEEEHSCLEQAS
Kind of data set: Inhibition of IKKbeta in human MGC-803 cells assessed as TNF-alpha induced I-kappa-B-alpha degradation at 1 to 10 uM preincubated for 1 hr followed by TNF-alpha stimulation and measured after 10 mins by Western blot analysis. In kind it is cell-based. For orientation: Immunoblotting shows a protein as a band on a membrane.

In data set [7] the test system is MGC-803. Nature of the data set: Induction of apoptosis in human MGC803 cells after 12 hrs by Annexin V-FITC staining-based FACS analysis. It counts as functional, cell-based. (In general: Flow cytometry measures light scatter and fluorescence of single cells or particles in a stream.)
Data set [8] deals with T1, Inhibitor of nuclear factor kappa-B kinase subunit beta (Homo sapiens). Nature of the data set: Inhibition of IKKbeta in human SGC-7901 cells assessed as TNF-alpha induced I-kappa-B-alpha degradation at 1 to 10 uM preincubated for 1 hr followed by TNF-alpha stimulation and measured after 10 mins by Western blot analysis. In kind it is cell-based.
Data set [9] relates to SGC-7901. Kind of data set: Cell cycle arrest in human SGC7901 cells assessed as decrease in cyclinB1 levels at 1 to 10 uM after 12 hrs by Western blot analysis. In kind it is functional, cell-based.
The target of data set [10] is T2, Inhibitor of NF-kappa-B kinase alpha/beta (Homo sapiens) (UniProt O14920+O15111). Kind of data set: Inhibition of TNF-alpha induced IKKalpha/beta phosphorylation in human MGC-803 cells preincubated for 1 hr followed by TNF-alpha stimulation and measured after 10 mins by Western blot analysis. It counts as cell-based.
In data set [11] the test system is Mus musculus. Nature of the data set: Downregulation of Bcl-2 levels in tumor of athymic nude mouse xenografted with human SGC7901 cells at 10 mg/kg, ip administered every other day for 22 days by Western blot method. It counts as functional, organism-based.
The subject of data set [12] is MGC-803. Kind of data set: Cell cycle arrest in human MGC803 cells assessed as decrease in cyclinB1 levels at 1 to 10 uM after 12 hrs by Western blot analysis. In kind it is functional, cell-based.
The test system of data set [13] is Mus musculus. Kind of data set: In vivo inhibition of IKKalpha/beta phosphorylation in tumor of athymic nude mouse xenografted with human SGC7901 cells at 10 mg/kg, ip administered every other day for 22 days by Western blot method. It counts as functional, organism-based.
In data set [14] the test system is SGC-7901. Kind of data set: Induction of apoptosis in human SGC7901 cells at 1 uM after 12 hrs by Annexin V-FITC staining-based FACS analysis (reference value: 1.56%). In kind it is functional.
Data set [15] concerns SGC-7901. Kind of data set: Induction of apoptosis in human SGC7901 cells assessed as decrease in Bcl-2 levels at 1 to 10 uM after 12 hrs by Western blot analysis. It counts as functional, cell-based.
Data set [16] has as its system MGC-803. Nature of the data set: Cell cycle arrest in human MGC803 cells assessed as accumulation of cells at G2/M phase at 1 to 10 uM after 12 hrs by propidium iodide staining-based flow cytometric analysis. In kind it is functional.
Data set [17] relates to MGC-803. Nature of the data set: Induction of apoptosis in human MGC803 cells at 5 uM after 12 hrs by Annexin V-FITC staining-based FACS analysis (reference value: 1.17%). It counts as functional.
Data set [18] has as its system Mus musculus. Nature of the data set: Toxicity in athymic nude mouse xenografted with human SGC7901 cells assessed as body weight loss at 10 mg/kg, ip administered every other day for 22 days. It counts as organism-based. As to conditions: in vivo, 528 h.
In data set [19] the test system is MGC-803. Nature of the data set: Induction of apoptosis in human MGC803 cells assessed as increase in cleaved caspase-3 levels at 1 to 10 uM after 12 hrs by Western blot analysis. It counts as functional, cell-based.
Data set [20] relates to SGC-7901. Nature of the data set: Cell cycle arrest in human SGC7901 cells assessed as accumulation of cells at G2/M phase at 1 to 10 uM after 12 hrs by propidium iodide staining-based flow cytometric analysis. It counts as functional.
The target of data set [21] is T2, Inhibitor of NF-kappa-B kinase alpha/beta (Homo sapiens). Nature of the data set: Inhibition of TNF-alpha induced IKKalpha/beta phosphorylation in human SGC-7901 cells preincubated for 1 hr followed by TNF-alpha stimulation and measured after 10 mins by Western blot analysis. In kind it is cell-based.
Data set [22] has as its target T1, Inhibitor of nuclear factor kappa-B kinase subunit beta (Homo sapiens). Kind of data set: Inhibition of IKKbeta in human SGC-7901 cells assessed as decrease in TNF-alpha induced p65 nuclear translocation at 10 uM preincubated for 1 hr followed by TNF-alpha stimulation and measured after 1 hr by DAPI staining-based fluorescence microscopic analysis. It counts as cell-based.

The test system of data set [23] is SGC-7901. Nature of the data set: Cell cycle arrest in human SGC7901 cells assessed as decrease in Cdc2 p34 levels after 12 hrs by Western blot analysis. In kind it is functional, cell-based.
The test system of data set [24] is MGC-803. Nature of the data set: Cell cycle arrest in human MGC803 cells assessed as decrease in Cdc2 p34 levels after 12 hrs by Western blot analysis. In kind it is functional, cell-based.
Data set [25] has as its system MGC-803. Kind of data set: Induction of apoptosis in human MGC803 cells assessed as decrease in Bcl-2 levels at 1 to 10 uM after 12 hrs by Western blot analysis. In kind it is functional, cell-based.
Data set [26] deals with Mus musculus. Nature of the data set: In vivo inhibition of IKKalpha/beta in tumor of athymic nude mouse xenografted with human SGC7901 cells assessed as I-kappa-B-alpha degradation at 10 mg/kg, ip administered every other day for 22 days by Western blot method. In kind it is functional, organism-based.
Data set [27] relates to SGC-7901. Nature of the data set: Induction of apoptosis in human SGC7901 cells after 12 hrs by Annexin V-FITC staining-based FACS analysis. In kind it is functional, cell-based.
Data set [28] concerns SGC-7901. Kind of data set: Antitumor activity against human SGC7901 cells xenografted in athymic nude mouse assessed as tumor growth inhibition at 10 mg/kg, ip administered every other day for 22 days. It counts as functional, organism-based.
Data set [29] deals with MGC-803. Nature of the data set: Induction of apoptosis in human MGC803 cells at 1 uM after 12 hrs by Annexin V-FITC staining-based FACS analysis (reference value: 1.17%). It counts as functional.
The test system of data set [30] is SGC-7901. Kind of data set: Induction of apoptosis in human SGC7901 cells assessed as increase in cleaved caspase-3 levels at 1 to 10 uM after 12 hrs by Western blot analysis. It counts as functional, cell-based.
Data set [31] has as its target T3, Inhibitor of nuclear factor kappa-B kinase subunit beta (Homo sapiens, UniProt O14920).
T3 sequence (O14920 whole entry): T1 sequence (whole entry)
Kind of data set: Inhibition of IKKbeta (unknown origin) using FAM-P22 as substrate preincubated for 10 mins followed by substrate addition and measured after 1 hr by mobility shift assay.

As to `O=C1/C(=C/c2ccccc2F)CNC/C1=C\c1ccccc1F`, the IC50 (usually the concentration needed to halve the response being measured) with MGC-803 [1] amounted to 2000 nM; in the data set with SGC-7901 [2], 1000 nM; with A549, 2800 nM; with HeLa 229, 1900 nM.
`Cc1ccc2nc(NCCN)c3ncc(C)n3c2c1.Cl`: the Activity in the data set on SGC-7901 [3] is recorded as 19.49%; in the data set on MGC-803 [4], 12.61%. Moreover, the IC50 in the data set with MGC-803 [1] worked out at 14200 nM; in the data set with SGC-7901 [2], 8300 nM; with A549 it was 9300 nM; with HeLa 229 it was 9400 nM.
`O=C1/C(=C/c2ccccc2Br)CNC/C1=C\c1ccccc1Br`: the Activity in the data set on SGC-7901 [5] is 27.9%; in the data set with MGC-803 [7], “Dose-dependent effect”; in the data set on SGC-7901 [3], 45.3%; in the data set with SGC-7901 [14], 8.95%; in the data set on MGC-803 [17] it was 16.14%; in the data set with Mus musculus [18], “Non-Toxic”. The Activity was 32.1% in the data set on MGC-803 [4]; “Dose-dependent effect” with SGC-7901 [23]; “Dose-dependent effect” in the data set on MGC-803 [24]; “Dose-dependent effect” with SGC-7901 [27]; 9.88% in the data set with MGC-803 [29]. Also, the inhibition result (in data set [6]; in data set [8]; in the data set on Mus musculus [13]; in [22]; in the data set on Mus musculus [26]) was “Active” in each case. Besides, the outcome with SGC-7901 [9], in the data set on Mus musculus [11], in the data set on MGC-803 [12], in the data set with SGC-7901 [15], with MGC-803 [16] and in the data set on MGC-803 [19] was Active. Also, the result with SGC-7901 [20], in the data set with MGC-803 [25] and in the data set with SGC-7901 [30] was Active. For the same compound, the inhibition result in data set [10] and in [21] was “Dose-dependent effect” each time. Also, the IC50 with MGC-803 [1] was 1800 nM; in the data set with SGC-7901 [2], 1200 nM; with A549, 2100 nM; in the data set on HeLa 229, 1800 nM. Moreover, in the data set on SGC-7901 [28], the TGI result was “Active”.
In the case of `O=C1/C(=C/c2ccccc2F)COC/C1=C\c1ccccc1F`, the IC50 in data set [31] was 19600 nM.
On the same count and under the same terms, under `O=C1/C(=C/c2c(F)cccc2F)CNC/C1=C\c1c(F)cccc1F` stands 14000 nM.
